# Target: USP7 (Homo sapiens, UniProt Q93009)
# Test: USP7 inhibitory potency (IC50)
# Format: biochemical
# Description: Activity for compounds described herein is provided in Table 2, wherein potency levels are provided as follows: (Potency: USP7 IC50: A<0.01 μM; B=0.01-0.1 μM; C=>0.1 μM.
# USP7, sequence (Q93009 whole entry): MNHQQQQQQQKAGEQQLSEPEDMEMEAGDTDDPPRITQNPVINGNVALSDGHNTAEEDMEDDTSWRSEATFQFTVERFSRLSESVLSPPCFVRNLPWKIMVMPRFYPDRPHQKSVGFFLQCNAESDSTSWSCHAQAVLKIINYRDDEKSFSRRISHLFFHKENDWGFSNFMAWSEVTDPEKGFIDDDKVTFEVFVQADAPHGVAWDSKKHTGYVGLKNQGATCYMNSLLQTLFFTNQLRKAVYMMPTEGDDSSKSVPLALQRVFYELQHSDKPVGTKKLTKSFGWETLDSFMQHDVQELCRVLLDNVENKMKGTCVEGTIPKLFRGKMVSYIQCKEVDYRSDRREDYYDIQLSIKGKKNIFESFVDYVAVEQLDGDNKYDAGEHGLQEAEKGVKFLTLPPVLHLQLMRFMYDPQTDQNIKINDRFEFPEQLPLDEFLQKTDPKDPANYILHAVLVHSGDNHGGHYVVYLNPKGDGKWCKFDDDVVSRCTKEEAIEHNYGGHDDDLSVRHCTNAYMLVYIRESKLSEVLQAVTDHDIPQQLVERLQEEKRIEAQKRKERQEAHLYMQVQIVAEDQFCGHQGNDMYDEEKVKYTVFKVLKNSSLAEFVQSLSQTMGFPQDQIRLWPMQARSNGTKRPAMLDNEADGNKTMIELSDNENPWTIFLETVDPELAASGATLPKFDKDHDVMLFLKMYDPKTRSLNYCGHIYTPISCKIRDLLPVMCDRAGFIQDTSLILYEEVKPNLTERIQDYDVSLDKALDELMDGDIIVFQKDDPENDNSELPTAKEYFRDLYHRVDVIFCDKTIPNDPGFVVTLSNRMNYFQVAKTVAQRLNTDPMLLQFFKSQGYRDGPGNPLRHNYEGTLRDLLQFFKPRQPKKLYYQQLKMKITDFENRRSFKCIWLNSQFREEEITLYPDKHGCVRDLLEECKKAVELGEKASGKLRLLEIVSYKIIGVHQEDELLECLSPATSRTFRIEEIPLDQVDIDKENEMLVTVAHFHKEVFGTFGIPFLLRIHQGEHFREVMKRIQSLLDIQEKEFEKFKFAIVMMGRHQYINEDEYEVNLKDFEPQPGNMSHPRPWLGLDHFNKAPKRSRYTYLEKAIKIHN
row,SMILES,IC50 [nM]
1,"Cc1cc(Cl)cc(-c2ncnc3cc(CN4C(=O)CCC4=O)sc23)c1CC1CNCC2(COC2)O1 (centres unmarked) [Example 237, 1-((4-(2-((2,5-dioxa-8-azaspiro[3.5]nonan-6-yl)methyl)-5-chloro-3-methylphenyl)thieno[3,2-d]pyrimidin-6-yl)methyl)pyrrolidine-2,5-dione]",< 10
2,"Cc1cc(Cl)cc(-c2ncnc3cc(CN4C(=O)C5CC5C4=O)sc23)c1CN1[C@@H](C)CNC[C@@H]1C (stereo partly drawn) [Example 57, 3-((4-(5-chloro-2-(((2S,6S)-2,6-dimethylpiperazin-1-yl)methyl)-3-methylphenyl)thieno[3,2-d]pyrimidin-6-yl)methyl)-3-azabicyclo[3.1.0]hexane-2,4-dione]",< 10
3,"Cc1cc(Cl)cc(-c2ccnc3cc(CN4C(=O)C5CC5C4=O)sc23)c1C[C@H]1O[C@H](C)CNC1=O (stereo partly drawn) [Example 105, 3-((7-(5-chloro-3-methyl-2-(((2R,6R)-6-methyl-3-oxomorpholin-2-yl)methyl)phenyl)thieno[3,2-b]pyridin-2-yl)methyl)-3-azabicyclo[3.1.0]hexane-2,4-dione]",> 100
4,"Cc1cc(Cl)cc(-c2ncnc3cc(CN4C(=O)CCN(CC(F)(F)F)C4=O)sc23)c1C[C@@H]1CNCC(C)(C)O1 [Example 236, (R)-3-((4-(5-chloro-2-((6,6-dimethylmorpholin-2-yl)methyl)-3-methylphenyl)thieno[3,2-d]pyrimidin-6-yl)methyl)-1-(2,2,2-trifluoroethyl)dihydropyrimidine-2,4(1H,3H)-dione]",< 10
5,"CC1(C)CNCC(Cc2c(Cl)cc(Cl)cc2-c2ncnc3cc(CN4C(=O)CCC4=O)sc23)O1 (centres unmarked) [Example 211, 1-((4-(3,5-dichloro-2-((6,6-dimethylmorpholin-2-yl)methyl)phenyl)thieno[3,2-d]pyrimidin-6-yl)methyl)pyrrolidine-2,5-dione]",< 10
6,"O=C1CCC(=O)N1Cc1cc2ncnc(-c3cc(Cl)cc(Cl)c3CC3CNCCO3)c2s1 (centres unmarked) [Example 204, 1-((4-(3,5-dichloro-2-(morpholin-2-ylmethyl)phenyl)thieno[3,2-d]pyrimidin-6-yl)methyl)pyrrolidine-2,5-dione]",< 10
7,"Cc1cc(Cl)cc(-c2ncnc3cc(CN4C(=O)CC[C@@H]4CF)sc23)c1C[C@@H]1CNCC(C)(C)O1 [Example 219, (R)-1-((4-(5-chloro-2-(((R)-6,6-dimethylmorpholin-2-yl)methyl)-3-methylphenyl)thieno[3,2-d]pyrimidin-6-yl)methyl)-5-(fluoromethyl)pyrrolidin-2-one]",< 10
8,"Cc1cc(Cl)cc(-c2ncnc3cc(CN4C(=O)CC(C)NC4=O)sc23)c1C[C@@H]1CNCCO1 (stereo partly drawn) [Example 248, 3-((4-(5-chloro-3-methyl-2-(((R)-morpholin-2-yl)methyl)phenyl)thieno[3,2-d]pyrimidin-6-yl)methyl)-6-methyldihydropyrimidine-2,4(1H,3H)-dione]",< 10
9,"Cc1cc(Cl)cc(-c2ncnc3cc(CN4C(=O)C5CC5C4=O)sc23)c1CC1CNC(C)(C)CO1 (centres unmarked) [Example 158, 3-((4-(5-chloro-2-((5,5-dimethylmorpholin-2-yl)methyl)-3-methylphenyl)thieno[3,2-d]pyrimidin-6-yl)methyl)-3-azabicyclo[3.1.0]hexane-2,4-dione]",10 to 100
10,"Cc1cc(Cl)cc(-c2ncnc3cc(CN4C(=O)C5CCCN5C4=O)sc23)c1CN1[C@@H](C)CNC[C@@H]1C (stereo partly drawn) [Example 86, 2-((4-(5-chloro-2-(((2S,6S)-2,6-dimethylpiperazin-1-yl)methyl)-3-methylphenyl)thieno[3,2-d]pyrimidin-6-yl)methyl)tetrahydro-1H-pyrrolo[1,2-c]imidazole-1,3(2H)-dione]",< 10
11,"Cc1cc(Cl)cc(-c2ccnc3c(F)c(CN4C(=O)C5CC5C4=O)sc23)c1C[C@@H]1CNCCO1 (stereo partly drawn) [Example 125, 3-((7-(5-chloro-3-methyl-2-(((R)-morpholin-2-yl)methyl)phenyl)-3-fluorothieno[3,2-b]pyridin-2-yl)methyl)-3-azabicyclo[3.1.0]hexane-2,4-dione]",< 10

# Reference: US11084829B2, “Ubiquitin-specific-processing protease 7 (USP7) modulators and uses thereof” (RAPT THERAPEUTICS, INC., priority 2018, dated 2021)
